# Reference: the supplement of paper PMC11451515
# System: SEM cells
# Test: cell viability relative to DMSO control; higher = less cytotoxic
# Details: 48 h
# In short: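 Cells were incubated for 48 h at 37°C before CellTiter-Glo One luminescence was read. The cells were NOMO1 or SEM (500 cells/well) or P12-Ichikawa (1000 cells/well) leukemia cells, adapted for at least four passages in each medium and seeded in 1536-well plates (5 μl). Dosing used library compounds in DMSO applied by pin over 11 threefold points, 47 μM to 0.79 nM. Viability is the per-plate percentage of DMSO wells, with cell-free wells as background.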
# [1] = HPLM + 10% dialyzed FBS, 0.000781 µM
# [2] = HPLM + 10% dialyzed FBS, 0.00234 µM
# [3] = HPLM + 10% dialyzed FBS, 0.00702 µM
# [4] = HPLM + 10% dialyzed FBS, 0.0211 µM
# [5] = HPLM + 10% dialyzed FBS, 0.0632 µM
# [6] = HPLM + 10% dialyzed FBS, 0.19 µM
# [7] = HPLM + 10% dialyzed FBS, 0.569 µM
# [8] = HPLM + 10% dialyzed FBS, 1.71 µM
# [9] = HPLM + 10% dialyzed FBS, 5.12 µM
# [10] = HPLM + 10% dialyzed FBS, 15.4 µM
# [11] = HPLM + 10% dialyzed FBS, 46.1 µM
# [12] = RPMI 5 mM glucose + 10% dialyzed FBS, 0.000781 µM
# [13] = RPMI 5 mM glucose + 10% dialyzed FBS, 0.00234 µM
# [14] = RPMI 5 mM glucose + 10% dialyzed FBS, 0.00702 µM
# [15] = RPMI 5 mM glucose + 10% dialyzed FBS, 0.0211 µM
# [16] = RPMI 5 mM glucose + 10% dialyzed FBS, 0.0632 µM
# [17] = RPMI 5 mM glucose + 10% dialyzed FBS, 0.19 µM
# [18] = RPMI 5 mM glucose + 10% dialyzed FBS, 0.569 µM
# [19] = RPMI 5 mM glucose + 10% dialyzed FBS, 1.71 µM
# [20] = RPMI 5 mM glucose + 10% dialyzed FBS, 5.12 µM
# [21] = RPMI 5 mM glucose + 10% dialyzed FBS, 15.4 µM
# [22] = RPMI 5 mM glucose + 10% dialyzed FBS, 46.1 µM
# [23] = RPMI 5 mM glucose + 10% FBS, 0.000781 µM
# [24] = RPMI 5 mM glucose + 10% FBS, 0.00234 µM
# [25] = RPMI 5 mM glucose + 10% FBS, 0.00702 µM
# [26] = RPMI 5 mM glucose + 10% FBS, 0.0211 µM
# [27] = RPMI 5 mM glucose + 10% FBS, 0.0632 µM
# [28] = RPMI 5 mM glucose + 10% FBS, 0.19 µM
# [29] = RPMI 5 mM glucose + 10% FBS, 0.569 µM
# [30] = RPMI 5 mM glucose + 10% FBS, 1.71 µM
# [31] = RPMI 5 mM glucose + 10% FBS, 5.12 µM
# [32] = RPMI 5 mM glucose + 10% FBS, 15.4 µM
# [33] = RPMI 5 mM glucose + 10% FBS, 46.1 µM
SMILES,cell viability [1] [%],cell viability [2] [%],cell viability [3] [%],cell viability [4] [%],cell viability [5] [%],cell viability [6] [%],cell viability [7] [%],cell viability [8] [%],cell viability [9] [%],cell viability [10] [%],cell viability [11] [%],cell viability [12] [%],cell viability [13] [%],cell viability [14] [%],cell viability [15] [%],cell viability [16] [%],cell viability [17] [%],cell viability [18] [%],cell viability [19] [%],cell viability [20] [%],cell viability [21] [%],cell viability [22] [%],cell viability [23] [%],cell viability [24] [%],cell viability [25] [%],cell viability [26] [%],cell viability [27] [%],cell viability [28] [%],cell viability [29] [%],cell viability [30] [%],cell viability [31] [%],cell viability [32] [%],cell viability [33] [%]
O=P1(N(CCCl)CCCl)NCCCO1 (stereo not given),113,104,96.5,110,110,114,92.8,111,84.8,29.5,17.9,96.6,95.6,98.6,119,99.7,102,109,84,80.5,20.2,11.4,–,–,–,–,–,–,–,–,–,–,–
CO[C@H]1/C=C/O[C@@]2(C)Oc3c(C)c(O)c4c(O)c(c(/C=N\N5CCN(C6CCCC6)CC5)c(O)c4c3C2=O)NC(=O)/C(C)=C\C=C\[C@H](C)[C@H](O)[C@@H](C)[C@@H](O)[C@@H](C)[C@H](OC(C)=O)[C@@H]1C,78.4,70.3,63.7,62.1,45.6,15,6.95,3.02,1.55,1.63,1.24,58,63.5,60.5,47.5,50.4,19.8,8.21,2.82,1.68,1.26,1.06,39.3,42.6,34.7,33.5,29.1,9.34,4.87,2.56,1.35,1.05,0.91
CN1CC/C(CC1)=C3\c4ccccc4CC(=O)c2sccc23,107,110,127,121,119,122,127,133,142,123,110,117,114,126,104,119,129,135,108,128,106,113,115,124,123,114,127,125,126,116,145,129,103
O=C(O)c1ccc(-c2c[nH]c3ncc(-c4ccccc4)cc23)cc1C1CCCC1,98,103,113,113,118,125,99,108,82.4,63.5,66.6,114,116,119,138,114,115,123,101,65.3,44.1,35.3,111,110,111,109,121,113,101,91.8,69.8,47.1,43.2
CN(C)/[N+]([O-])=N/Oc1cc(ON[N+](=O)N2CCN(C(=O)c3cc(Cc4n[nH]c(=O)c5ccccc45)ccc3F)CC2)c([N+](=O)[O-])cc1[N+](=O)[O-],94,97.2,103,97.7,100,58.3,101,116,109,110,105,89.9,79.2,112,103,109,40.1,137,122,106,100,91.8,99,101,93.1,93.5,100,55.9,98.2,109,111,113,103
CN1\N=N/C2=C(N=C[N]2C1=O)C(N)=O,112,114,132,111,121,88.2,60.9,57.7,51.2,38.7,25.3,105,115,139,116,113,78.7,58.7,37.4,31.9,28.9,20.5,85.8,102,106,86.2,88.5,67.7,47.6,50.6,41.9,28.4,24.1
COc1ccc(CC2c3cc(OC)c(OC)cc3CC[N+]2(C)CCC(=O)OCCCCCOC(=O)CC[N+]2(C)CCc3cc(OC)c(OC)cc3C2Cc2ccc(OC)c(OC)c2)cc1OC (stereo not given),81.2,80.8,92.9,98.4,80.3,94,103,101,97.1,22.6,88,75,73.3,93.8,96,79.9,93.8,104,103,91.1,22.1,80.2,81,77.6,94,78.5,81.1,99.2,91.2,102,92.1,13.2,85.1
